Source: patent US20220235006A1, “PYRIDINE DERIVATIVES AS TMEM16A MODULATORS FOR USE IN THE TREATMENT OF RESPIRATORY CONDITIONS” (TMEM16A LIMITED, priority 2019, published 2022)
Converted amounts (≈) assume the structure as drawn.

Key:
[1] = Log D (pH7.4 shake flask); format: physicochemical; conditions: pH 7.4; 1-octanol/phosphate buffer shake flask; read-out: mLogD (pH 7.4)
[2] = Kinetic solubility determination (high throughput); format: physicochemical; conditions: kinetic from dmso stock, sterile water, 5% DMSO, room temperature
Procedure: Test compounds (10 μL; 20 mM DMSO solution) were added to sterile water (190 μL) in triplicate and shaken at 300 rpm at room temperature. After 90 min. the test compounds were filtered by centrifuge (5 min. at 3000 rpm) to obtain the aqueous filtrate. Acetonitrile (20 μL) was dispensed into clean 96-well UV/VIS analysis plate and aqueous filtrate (80 μL) added and the plate analysed for test compound concentration using a Molecular Devices SPECTRAmax® plus microplate reader at the following wavelengths: (280, 300, 320, 340, 360, 800 nm). […] The diluted filtrate (80 μL) was then added to acetonitrile (20 μL) and the plate analysed. as previously.

| SMILES | logD [1] | solubility kinetic at 90 min [2] |
| --- | --- | --- |
| CC(C)(O)c1cc(F)c(CC(=O)Nc2ccnc(C(=O)NC3(C(F)(F)F)CC3)c2)cc1O [Example 2, 4-[[2-[2-Fluoro-5-hydroxy-4-(1-hydroxy-1-methyl-ethyl)phenyl]acetyl]amino]-N-[1-(trifluoromethyl)cyclopropyl]pyridine-2-carboxamide] | 3.1 | 152 µg/mL (≈ 334 µM) |
| CC(C)(CO)c1cc(Cl)c(CC(=O)Nc2ccnc(C(=O)NC3(C(F)(F)F)CC3)c2)cc1O [Example 14, 4-[[2-[2-Chloro-5-hydroxy-4-(2-hydroxy-1,1-dimethyl-ethyl)phenyl]acetyl]amino]-N-[1-(trifluoromethyl)cyclopropyl]pyridine-2-carboxamide] | 3.9 | 90 µg/mL (≈ 185 µM) |
| O=C(Cc1cc(O)c(C(CO)C(F)(F)F)cc1F)Nc1ccnc(C(=O)NC2(C(F)(F)F)CC2)c1 (stereo not drawn) [Example 17, 4-[[2-[2-Fluoro-5-hydroxy-4-[2,2,2-trifluoro-1-(hydroxymethyl)ethyl]phenyl]acetyl]amino]N-[1-(trifluoromethyl)cyclopropyl]pyridine-2-carboxamide] | 3.3 | 292 µg/mL (≈ 573 µM) |
| CC(C)(CCO)c1cc(F)c(CC(=O)Nc2ccnc(C(=O)NC3(C(F)(F)F)CC3)c2)cc1O [Example 11, 4-[[2-[2-Fluoro-5-hydroxy-4-(3-hydroxy-1,1-dimethyl-propyl)phenyl]acetyl]amino]-N-[1-(trifluoromethyl)cyclopropyl]pyridine-2-carboxamide] | 3.7 | 120 µg/mL (≈ 248 µM) |
| CC(C)(C#N)NC(=O)c1cc(NC(=O)Cc2ccc(C(C)(C)C)c(O)c2)ccn1 [93.4 of PCT/GB2019/050209, reference compound] | > 4.1 | 37 µg/mL (≈ 93.8 µM) |
| CC(C#N)NC(=O)c1cc(NC(=O)Cc2cc(O)c(C(C)(C)C)cc2F)ccn1 (stereo not drawn) [Example 1.3] | 3.9 | 35 µg/mL (≈ 87.8 µM) |
| CC(C)(C)NC(=O)c1cc(NC(=O)Cc2cc(O)c(C(C)(C)C)cc2F)ccn1 [91 of PCT/GB2019/050209, reference compound] | > 4.5 | 10 µg/mL (≈ 24.9 µM) |

Second part, the compound after the results:

| logD [1] | solubility kinetic at 90 min [2] | SMILES |
| --- | --- | --- |
| 3.4 | 154 µg/mL (≈ 331 µM) | Cc1cc(C(C)(C)CO)c(O)cc1CC(=O)Nc1ccnc(C(=O)NC2(C(F)(F)F)CC2)c1 [Example 14.1, 4-[[2-[5-Hydroxy-4-(2-hydroxy-1,1-dimethyl-ethyl)-2-methyl-phenyl]acetyl]amino]-N-[1-(trifluoromethyl)cyclopropyl]pyridine-2-carboxamide] |
| 3.6 | 116 µg/mL (≈ 247 µM) | CCC(C)(O)c1cc(F)c(CC(=O)Nc2ccnc(C(=O)NC3(C(F)(F)F)CC3)c2)cc1O (stereo not drawn) [Example 2.11, 4-[[2-[2-Fluoro-5-hydroxy-4-(1-hydroxy-1-methyl-propyl)phenyl]acetyl]amino]-N-[1-(trifluoromethyl)cyclopropyl]pyridine-2-carboxamide] |
| 3.3 | 67 µg/mL (≈ 139 µM) | O=C(Cc1cc(O)c(C2(CO)CCC2)cc1F)Nc1ccnc(C(=O)NC2(C(F)(F)F)CC2)c1 [Example 2.13, 4-[[2-[2-Fluoro-5-hydroxy-4-[1-(hydroxymethyl)cyclobutyl]phenyl]acetyl]amino]-N-[1-(trifluoromethyl)cyclopropyl]pyridine-2-carboxamide] |
| 3.2 | 142 µg/mL (≈ 302 µM) | CC(C)(CO)c1cc(F)c(CC(=O)Nc2ccnc(C(=O)NC3(C(F)(F)F)CC3)c2)cc1O [Example 2.6, 4-[[2-[2-Fluoro-5-hydroxy-4-(2-hydroxy-1,1-dimethyl-ethyl)phenyl]acetyl]amino]-N-[1-(trifluoromethyl)cyclopropyl]pyridine-2-carboxamide] |
| 3.4 | 164 µg/mL (≈ 351 µM) | CC(C)(CO)c1cc(Cl)c(CC(=O)Nc2ccnc(C(=O)NC3(C(F)F)CC3)c2)cc1O [Example 15.3, 4-[[2-[2-Chloro-5-hydroxy-4-(2-hydroxy-1,1-dimethyl-ethyl)phenyl]acetyl]amino]-N-[1-(difluoromethyl)cyclopropyl]pyridine-2-carboxamide] |
